Measured values taken from paper PMC8074792, “An ω-3, but Not an ω-6 Polyunsaturated Fatty Acid Decreases Membrane Dipole Potential and Stimulates Endo-Lysosomal Escape of Penetratin” (Frontiers in Cell and Developmental Biology, 2021).

Legend:
Assay type in all cases: cell-based, human
[1] = tested on: THP-1 cells; assay: Membrane hydration, PY3174 generalized polarization, confocal microscopy; details: 200 μM sterol 1 h or 50 μM fatty acid 48 h, efficacy order 6KC > cholesterol ≥ 7DHC, all statistically significant
Procedure: (§1) For these measurements, cells were labeled with 10 μM PY3174 for 20 min at room temperature. […] During processing, segmentation of images into membrane and non-membrane pixels was carried out with the manually seeded watershed algorithm using a custom-written MATLAB program as described previously ([Kovacs et al., 2017]). The average value of general polarization correlating with the degree of membrane compactness ([[…] et al., 2013]) was calculated from the data of cell membrane pixels after background subtraction using […]

[2] = tested on: JY cells; assay: as above; details: 200 μM sterol 1 h or 50 μM fatty acid 48 h, efficacy order 6KC > cholesterol ≥ 7DHC, effects of 7DHC and SA not statistically significant
Procedure: as §1

[3] = tested on: THP-1 cells; assay: Membrane fluidity, TMA-DPH fluorescence anisotropy; details: 200 μM sterol 1 h or 50 μM fatty acid 48 h, 37°C, n = 6, vs control
Procedure: (§2) 4′-(trimethylammonio)-diphenylhexatriene (TMA-DPH) was purchased from Sigma-Aldrich, dissolved in tetrahydrofuran and used for determination of membrane fluidity as described previously ([Batta et al., 2018]). […] Fluorescence intensities were measured without washing using a Fluorolog-3 spectrofluorometer (Horiba Jobin Yvon, Edison, NJ, United States) with the temperature of the cuvette holder adjusted to 37°C by a circulating water bath. The fluorescence anisotropy (r) of TMA-DPH was determined in the L-format after excitation at 352 nm and measurement of fluorescence intensities at 430 nm according to the formula: […]

[4] = tested on: JY cells; assay: Membrane fluidity, TMA-DPH fluorescence anisotropy; details: 200 μM sterol 1 h or 50 μM fatty acid 48 h, 37°C, n = 6, vs control
Procedure: as §2

[5] = tested on: THP-1 cells; assay: Membrane dipole potential, di-8-ANEPPS excitation ratio, spectrofluorometry; details: fatty acid 12.5-50 μM for 48 h, result at maximal 50 μM, n = 5
Procedure: (§3) The human acute monocytic leukemia-derived cell line THP-1 and the human Epstein-Barr virus (EBV) transformed lymphoblastoid cell line JY were obtained from the American Type Culture Collection (Manassas, VA, United States) and cultivated according to their specifications. […] As controls, cells were treated with the corresponding amounts of native MβCD complexes not containing sterols. To study the effects of fatty acids, cells were incubated for 48 h in medium supplemented with saturated stearic acid (SA, Sigma Aldrich), ω-3 polyunsaturated α-linolenic acid (ALA, Sigma Aldrich) or ω-6 polyunsaturated γ-linolenic acid (GLA, Sigma Aldrich) at various concentrations ranging from 12.5 to 50 μM. […] After washing, cells were kept on ice and samples were subsequently warmed to 37°C right before measurements carried out with a Fluorolog-3 spectrofluorometer (Horiba Jobin Yvon, Edison, NJ, United States). During measurements, the cuvette holder was kept at 37°C using a circulating water bath. Excitation spectra were recorded between 380 and 550 nm with the detected emission wavelength set to 660 nm in order to minimize effects of possible changes in membrane fluidity ([Clarke and Kane, 1997]). The ratio of fluorescence intensities integrated between excitation wavelengths 410–440 nm and 490–520 nm was calculated for each sample, which positively correlates with the magnitude of DP ([Clarke and Kane, 1997]; [Kovacs et al., 2017]; [Batta et al., 2020]).

[6] = tested on: JY cells; assay: as above; details: fatty acid 12.5-50 μM for 48 h, result at maximal 50 μM, n = 5
Procedure: as §3

[7] = tested on: THP-1 cells; assay: Penetratin uptake and endo-lysosomal escape, time-correlated flow cytometry; details: 50 μM fatty acid 48 h, 5 μM AFDye532- and 5 μM NF-penetratin, 37°C, compared at 900 s, n = 5
Description: (§4) Penetratin ([…]-amide, molecular weight 2245.75 g/mol) was synthesized manually on TentaGel R RAM (Rapp Polymere, Tübingen, Germany), a low crosslinked polystyrene PEG copolymer resin by the solid-phase method of Merrifield with standard Fmoc chemistry, as described in detail in our recent study ([Batta et al., 2020]). After coupling the last arginine, one half of the penetratin was reacted with AFDye532 N-hydroxysuccinimide ester (molecular weight 723.77 g/mol, Fluoroprobes, Scottsdale, AZ, United States), while the other half with 5(6)-carboxynaphthofluorescein N-succinimidyl ester (molecular weight 573.51 g/mol, Darmstadt, Germany). Completion of the coupling was assessed by Kaiser test, which was followed by deprotection and release from the resin. After filtration and precipitation with cold diethyl ether, the crude products were purified by preparative reversed-phase HPLC (JASCO, Victoria, BC, Canada) on a C18 column and lyophilized. The purity of the products (>95%) was assessed by reversed-phase HPLC (JASCO) equipped with an analytical C18 column. […] These values well correlated with the predicted masses of the labeled peptides (2983.59 and 2833.33, respectively).
(§5) Total cellular penetratin uptake and endo-lysosomal escape was determined as described previously ([Batta et al., 2020]). Briefly, control THP-1 or JY cells and those treated with 50 μM ALA, GLA or SA for 48 h at 37°C were incubated in the continuous presence of 5 μM AFDye532-penetratin, 5 μM NF-penetratin and 0.25 μg/ml DAPI at 37°C in the thermostated sample holder of a FACS Aria III flow cytometer. The fluorescence intensity of DAPI was measured using an excitation at 405 nm and an emission filter 450/20 nm. AFDye532 and NF were excited at 488 and 561 nm, respectively, and their fluorescence was determined using emission filters 530/30 and 670/14 nm, respectively. Measurements started immediately after addition of DAPI and penetratin and continued for 20 min at 37°C. Experimental data were analyzed first in FCS Express. Time-correlated fluorescence intensity values of DAPI-negative living cells were exported after spectral compensation and the moving averages of samples were calculated with a window size of 10 s. […] During analysis, fluorescence intensity values were first normalized to the average intensity in the first time window, which was followed by calculation of the fluorescence ratio from the normalized values.

[8] = tested on: JY cells; assay: as above; details: 50 μM fatty acid 48 h, 5 μM AFDye532- and 5 μM NF-penetratin, 37°C, compared at 900 s, n = 5
Description: as §4, §5

Row | Structure (SMILES) | PY3174 generalized polarization in the cell membrane (inversely correlates with membrane hydration) [1] | PY3174 generalized polarization in the cell membrane (inversely correlates with membrane hydration) [2] | TMA-DPH fluorescence anisotropy (inversely correlates with membrane fluidity) [3] | TMA-DPH fluorescence anisotropy (inversely correlates with membrane fluidity) [4] | Rexc, di-8-ANEPPS [5] | Rexc, di-8-ANEPPS [6] | ratio of NF and AFDye532 intensities (endo-lysosomal escape of penetratin) vs controls [7] | ratio of NF and AFDye532 intensities (endo-lysosomal escape of penetratin) vs controls [8]
1 | CC/C=C\C/C=C\C/C=C\CCCCCCCC(=O)O [ALA, α-linolenic acid] | reduced | reduced | significantly decreased | significantly decreased | significantly decreased | significantly decreased | significantly increased | significantly increased
2 | CCCCC/C=C\C/C=C\C/C=C\CCCCC(=O)O [GLA, γ-linolenic acid] | reduced | reduced | did not reach statistical significance | did not reach statistical significance | significant increases | significant increases | no significant changes | no significant changes
